# In patent US4937246A, “PAF antagonist, 1,4-disubstituted piperazine compounds and production thereof” (priority 1987, dated 1990):
# Like-named read-outs stand apart in the source and are kept apart here.
# Key:
# [1] = system: PAF-induced platelet aggregation; experiment: Inhibitory action on PAF-induced platelet aggregation (turbidimetry, platelet rich plasma); format: cell-based, rabbit (New Zealand white); conditions: Oryctolagus cuniculus, Concentration of test compound: 3 × 10^-5 M
# Protocol: Blood was collected from the hearts of conscious New Zealand white male rabbits weighing 2 to 3 Kg using citric acid as an anticoagulant (one volume part of 3.15% citric acid relative to 9 volume parts of the whole blood). The blood was subjected to a centrifuge at 800 rpm for 10 minutes to obtain platelet rich plasma (PRP). The remaining blood after collecting the PRP was subjected to a centrifuge at 3000 rpm for 10 minutes to obtain platelet poor plasma (PPP). PRP was diluted with PPP to adjust the number of platelets to about 500,000/μl. Platelet aggregation was examined by means of turbidimetry [Born, Nature, 194, 927-929 (1962)] with 8 channel aggregometer (NBS HEMA TRACER 6 Nikoh, Bio-science, Japan). More concretely, PRP (250μl) was kept warm (37° C.) for 3 minutes in a silicon-processed cuvette, to which was added a test sample (25μl) dissolved in a physiological saline or in 10mM dimethlsulfoxide followed by dilution with a physiological saline. Two minutes later, PAF (25μl, 3×10^-9 -1×10^-8 M), dissolved in a physiological saline, was added and then the maximum aggregation rate was determined. As the control, physiological saline without test sample was added to the cuvette, and the inhibitory rate thereon was determined.
# Incidentally, Compound B means N,N'-bis(3,4,5-trimethoxybenzoyl)piperazine (a known compound).
# PAF-induced hypotension = experiment: Inhibitory action on PAF-induced hypotension (oral administration); format: in vivo, rat (SD (Jcl)); conditions: Rattus norvegicus; for inhibition in vivo at 30 mg/kg: 30 mg/kg oral; for inhibition in vivo at 3 mg/kg: 3 mg/kg oral; for inhibition in vivo at 10 mg/kg: 10 mg/kg oral
# Protocol: SD (Jcl) male rats of 6 to 8 week old were applied with cannulation into the femoral artery and vein under anesthesia with pentobarbital. The animals were fasted overnight, then subjected to the experiment. A tansducer (MPU-0.5-290-0-III, TOYO BALDWIN, Japan) was connected with the artery cannula, and blood pressure was continuously measured by means of polygraph (San-ei, Japan). When the blood pressure became constant, PAF (0.5 to 1.0 μg/kg, 250 μl/kg) dissolved in a physiological saline was injected through the venous cannula to lower the blood pressures by 30 to 45 mmHg. Thirty minutes later, PAF was injected again, and the average of lowered values of blood pressure (twice) was used as the control. After restoration of blood pressure to the initial level, test samples prepared by dissolving or suspending the drug in a physiological saline suspension of gum arabic (5%) were orally administered (5 ml/kg), then, after 1, 2 and 4 hours, PAF was injected. The rate of inhibition of lowering of blood pressure after administration of the test samples against the control was evaluated.
SMILES,inhibition at 30 µM [1] [%],inhibition in vivo at 30 mg/kg (PAF-induced hypotension; after 1 hr.) [%],inhibition in vivo at 30 mg/kg (PAF-induced hypotension; after 2 hrs.) [%],inhibition in vivo at 30 mg/kg (PAF-induced hypotension; after 4 hrs.) [%],further results
COc1cc2c(cc1OC)OCCC(C(=O)N1CCN(C(=O)c3cc(OC)c(OC)c(OC)c3)CC1)C2 (centres unmarked) [compound 33],47,99,99,79,
COc1cc2c(cc1OC)OCCC(C(=O)N1CCN(C(=O)c3cc(OC)c(OC)c(OC)c3)CC1)=C2 [compound 26],100,98,99,100,inhibition in vivo at 3 mg/kg (PAF-induced hypotension; after 1 hr.): 74%; inhibition in vivo at 3 mg/kg (PAF-induced hypotension; after 2 hrs.): 70%; inhibition in vivo at 3 mg/kg (PAF-induced hypotension; after 4 hrs.): 44%; inhibition in vivo at 10 mg/kg (PAF-induced hypotension; after 1 hr.): 100%; inhibition in vivo at 10 mg/kg (PAF-induced hypotension; after 2 hrs.): 100%; inhibition in vivo at 10 mg/kg (PAF-induced hypotension; after 4 hrs.): 87%
"COc1cc(C(=O)N2CCN(C(=O)c3cc(OC)c(OC)c(OC)c3)CC2)cc(OC)c1OC [Compound B, N,N'-bis(3,4,5-trimethoxybenzoyl)piperazine, reference compound]",100,86,63,26,"LD50 (estimated) (rats; oral, rats, single dose): ~1000 mg/kg; survival (rats; rat, in vivo, po, 1000 mg/kg): all of the animals survived"
COc1cc(CN2CCN(C(=O)c3ccc4c(c3)OCCO4)CC2)cc(OC)c1OC [compound 17],88,,,,
COc1cc(CN2CCN(C(=O)C3=Cc4cc5c(cc4CC3)OCO5)CC2)cc(OC)c1OC [compound 6],93,,,,
CCCCOc1c(OC)cc(C(=O)N2CCN(C(=O)c3cc(OC)c(OC)c(OC)c3)CC2)cc1[N+](=O)[O-] [compound 5],,91,93,88,
COc1cc(CN2CCN(C(=O)c3cc(OC)c(OC)c(OC)c3)CC2)cc(OC)c1OC [compound 2],100,,,,
COc1cc2c(cc1OC)OCCC(C(=O)N1CCN(Cc3cc(OC)c(OC)c(OC)c3)CC1)=C2 [compound 25],100,100,97,70,
COc1ccc2c(c1)C=C(C(=O)N1CCN(C(=O)c3cc(OC)c(OC)c(OC)c3)CC1)CCO2 [compound 27],,100,100,86,inhibition in vivo at 10 mg/kg (PAF-induced hypotension; after 1 hr.): 79%; inhibition in vivo at 10 mg/kg (PAF-induced hypotension; after 2 hrs.): 75%; inhibition in vivo at 10 mg/kg (PAF-induced hypotension; after 4 hrs.): 62%
COc1cc(CN2CCN(C(=O)c3ccc4c(c3)C(=O)C3(CC3)O4)CC2)cc(OC)c1OC [compound 21],100,,,,
"COc1cc(CN2CCN(C(=O)c3cc4ccccc4o3)CC2)cc(OC)c1OC.Cl [Working Example 7, 1-(2-benzofuranylcarbonyl)4-(3,4,5-trimethoxybenzyl)piperazine hydrochloride]",,,,,"survival (rats; single oral dose 1000 mg/kg, rats, one week observation): all of the animals survived"
COc1cc(CN2CCN(C(=O)c3cnc4ccccc4c3)CC2)cc(OC)c1OC [compound 16],58,,,,
COc1cc(CN2CCN(C(=O)c3ccc4c(c3)C(O)C3(CC3)O4)CC2)cc(OC)c1OC (centres unmarked) [compound 22],100,94,80,2,
COc1cc(CN2CCN(C(=O)C3CCc4sc5ccccc5c4C3O)CC2)cc(OC)c1OC (centres unmarked) [compound 19],64,,,,
COc1cc2c(cc1OC)SCCC(C(=O)N1CCN(Cc3cc(OC)c(OC)c(OC)c3)CC1)=C2 [compound 23],74,94,94,67,
COc1ccc2c(c1)OCCC(C(=O)N1CCN(C(=O)c3cc(OC)c(OC)c(OC)c3)CC1)=C2 [compound 28],,92,91,92,
COc1cc(CN2CCN(C(=O)c3cc4ccccc4o3)CC2)cc(OC)c1OC [compound 7],74,4,15,25,
CCCOc1c(OC)cc(C(=O)N2CCN(Cc3cc(OC)c(OC)c(OC)c3)CC2)cc1[N+](=O)[O-] [compound 3],100,86,63,26,
COc1cc(CN2CCN(C(=O)c3ccsc3)CC2)cc(OC)c1OC [compound 13],46,,,,
COc1cc(CN2CCN(C(=O)c3cccnc3)CC2)cc(OC)c1OC [compound 8],63,,,,
COc1ccc(C(=O)N2CCN(Cc3cc(OC)c(OC)c(OC)c3)CC2)cc1OC [compound 4],,64,32,22,
COc1cc2c(cc1OC)OCCC(C(=O)N1CCN(C(=S)c3cc(OC)c(OC)c(OC)c3)CC1)=C2 [compound 29],,100,100,100,inhibition in vivo at 3 mg/kg (PAF-induced hypotension; after 1 hr.): 67%; inhibition in vivo at 3 mg/kg (PAF-induced hypotension; after 2 hrs.): 71%; inhibition in vivo at 3 mg/kg (PAF-induced hypotension; after 4 hrs.): 61%
COc1cc2c(cc1OC)SCCC(C(=O)N1CCN(C(=O)c3cc(OC)c(OC)c(OC)c3)CC1)=C2 [compound 24],100,94,91,78,
COc1cc(CN2CCN(C(=O)c3nc4ccccc4s3)CC2)cc(OC)c1OC [compound 9],52,,,,
COc1cc(CN2CCN(C(=O)c3cc4ccccc4oc3=O)CC2)cc(OC)c1OC [compound 12],78,65,40,24,
COc1ccc2c3c(oc2c1)CCC(C(=O)N1CCN(Cc2cc(OC)c(OC)c(OC)c2)CC1)=C3 [compound 18],84,,,,
